{
  "source": "patent US4769384A",
  "about": "“Benzimidazole derivatives” (Nippon Shinyaku Co. Ltd., priority 1985, dated 1988)",
  "assay_type_in_all_cases": "in vivo",
  "key": {"[1]": {"assay": "Acute toxicity, oral, rats", "conditions": "p.o., two weeks", "procedure": "(§1) Method: Male mice of six weeks of age or male rats of six weeks of age were fasted for 24 hours and subjected to the test.\n(§2) The compound to be tested was suspended in physiological saline solution containing 0.5% of methylcellulose. The suspension was administered orally."}, "[2]": {"assay": "Anti-ulcer action: water-immersion stress ulcer in rats, oral (ulcer index)", "conditions": "per os", "procedure": "Biological test method: Male rats of seven weeks of age were fasted for 24 hours and subjected to the test. The compound to be tested was suspended in a physiological saline solution containing 0.5% methylcellulose therein. 10 ml/kg of it was administered orally. The animals were immediately placed in a stress cage and immersed in a water bath of 23° C. to the depth of xiphoid. After 17 hours, they were sacrificed by cervical dislocation. The stomach was isolated therefrom. 7 ml of 2% formaline solution was introduced into the stomach for fixation. Then the stomach was cut along a greater curvature. The length of ulcer produced in fundus was measured under a microscope and the total ulcer length (in mm) was defined as an ulcer index per rat. Significance between mean ulcer indices was verified by the Student t-test."}, "[3]": {"assay": "Acute toxicity, oral, mice", "conditions": "p.o., two weeks", "procedure": "as §1, §2"}, "[4]": {"conditions": "10 mg/kg (# dose of salt as the corresponding base)"}, "[5]": {"conditions": "20 mg/kg (# dose of salt as the corresponding base)"}, "[6]": {"conditions": "40 mg/kg (# dose of salt as the corresponding base)"}, "[7]": {"conditions": "80 mg/kg (# dose of salt as the corresponding base)"}, "[8]": {"conditions": "5 mg/kg (# dose of salt as the corresponding base), 5 mg/kg"}, "[9]": {"conditions": "10 mg/kg (# dose of salt as the corresponding base), 10 mg/kg"}, "[10]": {"conditions": "20 mg/kg (# dose of salt as the corresponding base), 20 mg/kg"}, "[11]": {"conditions": "5 mg/kg (# dose of salt as the corresponding base)"}},
  "data": [
    {"smiles": "COC(=O)c1cccc2nc(/C=C/c3ccc(OC)c(OC)c3)[nH]c12", "note": "[1 (phosphate), Methyl (E)-2-(3,4-dimethoxystyryl)benzimidazole-4-carboxylate]", "values": [
      {"measurement": "Death Ratio", "setting": "[1]; 2580 mg/kg", "result": "0/4"},
      {"measurement": "Antiulcer Action (inhibition %) after 17 hours", "setting": "[2]; [4]", "result": 66, "unit": "%"},
      {"measurement": "Antiulcer Action (inhibition %) after 17 hours", "setting": "[2]; [5]", "result": 92, "unit": "%"},
      {"measurement": "Death Ratio", "setting": "[3]; 2580 mg/kg", "result": "0/3"}
    ]},
    {"smiles": "CN/C(=N/CCSCc1nc[nH]c1C)NC#N", "note": "[Cimetidine, reference compound]", "values": [
      {"measurement": "Antiulcer Action (inhibition %) after 17 hours", "setting": "[2]; 200 mg/kg", "result": 66, "unit": "%"}
    ]},
    {"smiles": "COC(=O)c1cccc2nc(/C=C/c3ccc(OC)c(OC)c3)[nH]c12", "note": "[Example 1, Methyl (E)-2-(3,4-dimethoxystyryl)benzimidazole-4-carboxylate]", "values": [
      {"measurement": "Death Ratio", "setting": "[1]; 2000 mg/kg", "result": "1/4"},
      {"measurement": "Antiulcer Action (inhibition %) after 17 hours", "setting": "[2]; 10 mg/kg", "result": 40, "unit": "%"},
      {"measurement": "Antiulcer Action (inhibition %) after 17 hours", "setting": "[2]; 20 mg/kg", "result": 78, "unit": "%"},
      {"measurement": "Antiulcer Action (inhibition %) after 17 hours", "setting": "[2]; 40 mg/kg", "result": 97, "unit": "%"},
      {"measurement": "Death Ratio", "setting": "[3]; 2000 mg/kg", "result": "0/5"}
    ]},
    {"smiles": "COC(=O)c1cccc2nc(/C=C/c3ccc(OC)cc3)[nH]c12", "note": "[Example 14, Methyl (E)-2-(4-methoxystyryl)benzimidazole-4-carboxylate]", "values": [
      {"measurement": "Death Ratio", "setting": "[1]; 2000 mg/kg", "result": "0/4"},
      {"measurement": "Antiulcer Action (inhibition %) after 17 hours", "setting": "[2]; 20 mg/kg", "result": 26, "unit": "%"},
      {"measurement": "Antiulcer Action (inhibition %) after 17 hours", "setting": "[2]; 40 mg/kg", "result": 81, "unit": "%"},
      {"measurement": "Antiulcer Action (inhibition %) after 17 hours", "setting": "[2]; 80 mg/kg", "result": 96, "unit": "%"}
    ]},
    {"smiles": "C#CCOc1ccc(/C=C/c2nc3c(C(=O)OC)cccc3[nH]2)cc1", "note": "[Example 30, Methyl (E)-2-[4-(2-propynyloxy)styryl]benzimidazole-4-carboxylate phosphate]", "values": [
      {"measurement": "Antiulcer Action (inhibition %) after 17 hours", "setting": "[2]; [5]", "result": 44, "unit": "%"},
      {"measurement": "Antiulcer Action (inhibition %) after 17 hours", "setting": "[2]; [6]", "result": 55, "unit": "%"},
      {"measurement": "Antiulcer Action (inhibition %) after 17 hours", "setting": "[2]; [7]", "result": 82, "unit": "%"}
    ]},
    {"smiles": "CCOc1ccc(/C=C/c2nc3cccc(C(=O)OC)c3[nH]2)cc1OC.O=P(O)(O)O", "note": "[Example 53, Methyl (E)-2-(4-ethoxy-3-methoxystyryl)benzimidazole-4-carboxylate phosphate]", "values": [
      {"measurement": "Antiulcer Action (inhibition %) after 17 hours", "setting": "[2]; [5]", "result": 81, "unit": "%"},
      {"measurement": "Antiulcer Action (inhibition %) after 17 hours", "setting": "[2]; [6]", "result": 99, "unit": "%"},
      {"measurement": "Antiulcer Action (inhibition %) after 17 hours", "setting": "[2]; [7]", "result": 99, "unit": "%"}
    ]},
    {"smiles": "COC(=O)c1cccc2nc(/C=C/c3ccc(OC)cc3)[nH]c12.O=P(O)(O)O", "note": "[Example 54, Methyl (E)-2-(4-methoxystyryl)benzimidazole-4-carboxylate phosphate]", "values": [
      {"measurement": "Death Ratio", "setting": "[1]; 2636 mg/kg", "result": "0/4"},
      {"measurement": "Antiulcer Action (inhibition %) after 17 hours", "setting": "[2]; [5]", "result": 55, "unit": "%"},
      {"measurement": "Antiulcer Action (inhibition %) after 17 hours", "setting": "[2]; [6]", "result": 86, "unit": "%"},
      {"measurement": "Antiulcer Action (inhibition %) after 17 hours", "setting": "[2]; [7]", "result": 98, "unit": "%"}
    ]},
    {"smiles": "COC(=O)c1cccc2nc(/C=C/c3ccc(OC)c(OC)c3)[nH]c12", "note": "[Example 65, Methyl (E)-2-(3,4-dimethoxystyryl)benzimidazole-4-carboxylate d-10-camphorsulfonate]", "values": [
      {"measurement": "Antiulcer Action (inhibition %) after 17 hours", "setting": "[2]; [8]", "result": 12, "unit": "%"},
      {"measurement": "Antiulcer Action (inhibition %) after 17 hours", "setting": "[2]; [9]", "result": 69, "unit": "%"},
      {"measurement": "Antiulcer Action (inhibition %) after 17 hours", "setting": "[2]; [10]", "result": 89, "unit": "%"},
      {"measurement": "Death Ratio", "setting": "[3]; 3440 mg/kg", "result": "2/5"}
    ]},
    {"smiles": "COC(=O)c1cccc2[nH]c(/C=C/c3ccc(OC)c(OC)c3)nc12", "note": "[Example 66, Methyl (E)-2-(3,4-dimethoxystyryl)benzimidazole-4-carboxylate 1-naphthalenesulfonate]", "values": [
      {"measurement": "Antiulcer Action (inhibition %) after 17 hours", "setting": "[2]; [8]", "result": 7, "unit": "%"},
      {"measurement": "Antiulcer Action (inhibition %) after 17 hours", "setting": "[2]; [9]", "result": 63, "unit": "%"},
      {"measurement": "Antiulcer Action (inhibition %) after 17 hours", "setting": "[2]; [10]", "result": 87, "unit": "%"}
    ]},
    {"smiles": "COC(=O)c1cccc2nc(/C=C/c3ccc(OC)c(OC)c3)[nH]c12.O=S(=O)(O)O", "note": "[Example 67, Methyl (E)-2-(3,4-dimethoxystyryl)benzimidazole-4-carboxylate sulfate]", "values": [
      {"measurement": "Antiulcer Action (inhibition %) after 17 hours", "setting": "[2]; [11]", "result": 48, "unit": "%"},
      {"measurement": "Antiulcer Action (inhibition %) after 17 hours", "setting": "[2]; [4]", "result": 72, "unit": "%"}
    ]},
    {"smiles": "Br.COC(=O)c1cccc2nc(/C=C/c3ccc(OC)c(OC)c3)[nH]c12", "note": "[Example 69, Methyl (E)-2-(3,4-dimethoxystyryl)benzimidazole-4-carboxylate hydrobromide]", "values": [
      {"measurement": "Antiulcer Action (inhibition %) after 17 hours", "setting": "[2]; [11]", "result": 38, "unit": "%"},
      {"measurement": "Antiulcer Action (inhibition %) after 17 hours", "setting": "[2]; [4]", "result": 82, "unit": "%"},
      {"measurement": "Death Ratio", "setting": "[3]; 2560 mg/kg", "result": "2/5"}
    ]},
    {"smiles": "COC(=O)c1cccc2nc(/C=C/c3ccc(OC)c(OC)c3)[nH]c12.Cl", "note": "[Example 70, Methyl (E)-2-(3,4-dimethoxystyryl)benzimidazole-4-carboxylate hydrochloride]", "values": [
      {"measurement": "Antiulcer Action (inhibition %) after 17 hours", "setting": "[2]; [11]", "result": 3, "unit": "%"},
      {"measurement": "Antiulcer Action (inhibition %) after 17 hours", "setting": "[2]; [4]", "result": 72, "unit": "%"},
      {"measurement": "Antiulcer Action (inhibition %) after 17 hours", "setting": "[2]; [5]", "result": 80, "unit": "%"},
      {"measurement": "Death Ratio", "setting": "[3]; 2340 mg/kg", "result": "1/5"}
    ]},
    {"smiles": "COC(=O)c1cccc2nc(/C=C/c3ccc(OC)c(OC)c3)[nH]c12.O=S(=O)(O)c1ccccc1", "note": "[Example 86, Methyl (E)-2-(3,4-dimethoxystyryl)benzimidazole-4-carboxylate benzenesulfonate]", "values": [
      {"measurement": "Death Ratio", "setting": "[1]; 2280 mg/kg", "result": "0/3"},
      {"measurement": "Antiulcer Action (inhibition %) after 17 hours", "setting": "[2]; [11]", "result": 4, "unit": "%"},
      {"measurement": "Antiulcer Action (inhibition %) after 17 hours", "setting": "[2]; [4]", "result": 35, "unit": "%"},
      {"measurement": "Antiulcer Action (inhibition %) after 17 hours", "setting": "[2]; [5]", "result": 98, "unit": "%"}
    ]}
  ]
}
